The record followed here is patent US8933228B2, “Respiratory formulations and compounds for use therein” (Respivert, Ltd., priority 2010, dated 2015).

A word on the IC50: it is the concentration needed to halve the response being measured. Usually inhibition stands for how much of the control response was suppressed.

The target in one data set is p38 MAPK alpha (MAPK14) (Homo sapiens (Human), UniProt Q16539). The data set is described as follows: Enzyme inhibition assay (FRET, Z-LYTE), p38 MAPK alpha via MAPKAP-K2 activation. It counts as biochemical. To be noted: read-out: Enzyme Profile: IC50 Values p38α. In a few lines: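 Recombinant p38 MAPKα was preincubated with compound 2 hr at RT. Its activity was measured indirectly through MAPKAP-K2 activation/phosphorylation, read by Z-LYTE FRET after 1 hr protease development. Phosphorylation was taken from the coumarin/fluorescein emission ratio.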

A further data set deals with p38 MAPK γ (MAPK12) (Homo sapiens (Human), UniProt P53778). The experiment in a line: Enzyme inhibition assay (FRET, Z-LYTE), p38 MAPK gamma. To be noted: read-out: Enzyme Profile: IC50 Values p38γ. It counts as biochemical. In a few lines:
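Recombinant phosphorylated human p38γ preincubated with compound 2 hr at RT in HEPES buffer, then reacted 1 hr with 2 μM FRET peptide and 100 μM ATP. Protease development 1 hr; phosphorylation derived from coumarin/fluorescein emission ratio.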

In the next data set the target is HCK enzyme (Homo sapiens (Human), UniProt P08631). The data set is described as follows: HCK enzyme inhibition assay (FRET, Z'-LYTE). The format is biochemical. The following applies: read-out: Enzyme Profile: IC50 Values HCK.
The next data set addresses cSrc enzyme (Homo sapiens (Human), UniProt P12931). The experiment in a line: c-SRC enzyme inhibition assay (FRET, Z'-LYTE). The format is biochemical. To be noted: read-out: Enzyme Profile: IC50 Values cSrc.
The subject of data set [1] is TNFα release in THP-1 cells. The experiment in a line: LPS-induced TNFα release in THP-1 cells. To be noted: Homo sapiens; THP-1 cells, LPS 3 μg/mL, 4 hr; read-out: THP1 (LPS) TNFα IC50. The format is cell-based. Here is the method: The inhibition of TNFα production was calculated at each concentration by comparison with vehicle control.
Data set [2] concerns TNFα release in d-U937 cells. The experiment in a line: LPS-induced TNFα release in d-U937 cells. The format is cell-based. To be noted: Homo sapiens, dU937, LPS 0.1 μg/mL, 4 hr, relative to 10 μg/mL BIRB796, read-out: d-U937 (LPS) TNFα REC50. In a few lines:
(§1)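 U937 cells made macrophage-like by 48–72 h with PMA (100 ng/mL), then stimulated with LPS (E. coli O111:B4) for 4 h. Supernatant TNFα and IL-8 measured by sandwich ELISA; inhibition versus vehicle control at each concentration, REC50 from concentration-response curve.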

The test system of data set [3] is IL-8 release in d-U937 cells. The experiment in a line: LPS-induced IL-8 release in d-U937 cells. It counts as cell-based. To be noted: Homo sapiens, dU937; d-U937 cells, LPS 0.1 μg/mL, 4 hr; read-out: d-U937 (LPS) IL-8 IC50. In a few lines: as §1
Data set [4] relates to ICAM-1 expression in BEAS2B cells. The experiment in a line: Poly I:C-induced ICAM-1 induction in BEAS2B cells. It counts as cell-based. To be noted: Homo sapiens, BEAS-2B; BEAS2B cells, poly I:C 1 μg/mL, 18 hr; read-out: BEAS2B (polyIC) ICAM1 IC50. In a few lines: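 Human bronchial epithelial BEAS2B cells pre-incubated 2 hr with test compounds at final concentrations, then transfected with poly I:C (1 μg/mL) using Oligofectamine. Cell-surface ICAM-1 quantified by cell-based ELISA with HRP-conjugated anti-rabbit IgG secondary.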

In another data set the test system is HRV16. The data set is described as follows: Rhinovirus-titre assay. It counts as cell-based, human rhinovirus. To be noted: Human rhinovirus sp., HRV16; cell not marked b; test compounds 0.04 μg/mL per method (footnote b, 0.2 μg/mL); read-out: HRV titre (inhibitory %): % inhibition observed vs. HRV16 infection control.
Data set [5] concerns Differentiated U937 cells. The experiment in a line: MTT assay: cell viability. The following applies: 1 μg/ml; for d-U937 MTT Assay 4 h: 5% FCS; for d-U937 MTT Assay 24 h: 10% FCS. The format is cell-based, human. In a few lines:
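Differentiated U937 cells pre-incubated with compound either 4 hr in 5% FCS or 24 h in 10% FCS, then 1 hr MTT. Formazan dissolved in DMSO, absorbance at 550 nm. Percentage viability loss relative to 0.5% DMSO vehicle; apparent increases appear as negative percentages.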
A general note: Tetrazolium assays rely on reduction of a dye to a coloured formazan, in cell work by metabolically active cells.

Consider `CC(C)(C)c1cc(NC(=O)Nc2ccc(Oc3ccnc4[nH]c(=O)cnc34)c3ccccc23)n(-c2ccc(Cl)cc2)n1` [Example 27, 1-(3-(tert-butyl)-1-(4-chlorophenyl)-1H-pyrazol-5-yl)-3-(4-((3-oxo-3,4-dihydropyrido[2,3-b]pyrazin-8-yl)oxy)naphthalen-1-yl)urea], for which the half-maximal inhibitory concentration (IC50) at p38 MAPK alpha (MAPK14) is 3 nM; on p38 MAPK γ (MAPK12), 237 nM; on HCK enzyme, 918 nM; at cSrc enzyme it was 16 nM; in data set [1] it was 7.5 nM; in [3] it was 1.1 nM. Besides, the concentration for half-maximal inhibition (IC50) in data set [4] is 2.2 nM. For the same compound, in [2], the EC50 was found to be 1.6 nM. Moreover, the inhibition at 0.04 µg/mL in the data set with HRV16 is 94%. Also, the “d-U937 MTT Assay 4 h” value in [5] was “− (− and + indicate the result is below and above the no significant effect threshold, respectively (<30% inhibition at a concentration of 1 μg/ml))”. In data set [5], the “d-U937 MTT Assay 24 h” value is “− (− and + indicate the result is below and above the no significant effect threshold, respectively (<30% inhibition at a concentration of 1 μg/ml))”.
As for `Cc1ccc(-n2nc(C3CC3)cc2NC(=O)Nc2ccc(Oc3ccnc4[nH]c(=O)cnc34)c3ccccc23)cc1` [Example 28, 1-(3-cyclopropyl-1-(p-tolyl)-1H-pyrazol-5-yl)-3-(4-((3-oxo-3,4-dihydropyrido[2,3-b]pyrazin-8-yl)oxy)naphthalen-1-yl)urea], the concentration for half-maximal inhibition (IC50) on p38 MAPK alpha (MAPK14) is 2 nM; at p38 MAPK γ (MAPK12), over 18000 nM; on HCK enzyme, 9 nM; on cSrc enzyme, 22 nM; in data set [1], 161 nM; in data set [3], 71 nM. Further, in data set [4], the IC50 is over 184 nM. Also, in data set [2], the EC50 is 40 nM. The inhibition at 0.04 µg/mL with HRV16 worked out at 36%. Further, in data set [5], the “d-U937 MTT Assay 4 h” value is “− (− and + indicate the result is below and above the no significant effect threshold, respectively (<30% inhibition at a concentration of 1 μg/ml))”. Also, the “d-U937 MTT Assay 24 h” value in data set [5] is “− (− and + indicate the result is below and above the no significant effect threshold, respectively (<30% inhibition at a concentration of 1 μg/ml))”.
Turning to `Cc1ccc(-n2nc(C3(C)CC3)cc2NC(=O)Nc2ccc(Oc3ccnc4[nH]c(=O)cnc34)c3ccccc23)cc1` [Example 29], the IC50 at p38 MAPK alpha (MAPK14) came to 5 nM; at p38 MAPK γ (MAPK12), 19 nM; at HCK enzyme, 4 nM; at cSrc enzyme it was 10 nM; in data set [1], 17 nM; in data set [3], 6.7 nM. Moreover, in [4], the IC50 was found to be 13 nM. For the same compound, the EC50 in [2] amounted to 5.6 nM. Further, the inhibition at 0.04 µg/mL in the data set on HRV16 turned out to be 60%. Also, the “d-U937 MTT Assay 4 h” value in [5] is “− (− and + indicate the result is below and above the no significant effect threshold, respectively (<30% inhibition at a concentration of 1 μg/ml))”. Moreover, the “d-U937 MTT Assay 24 h” value in data set [5] is “− (− and + indicate the result is below and above the no significant effect threshold, respectively (<30% inhibition at a concentration of 1 μg/ml))”.
For `CC(C)(C)c1cc(NC(=O)Nc2ccc(Oc3ccnc4[nH]c(=O)cnc34)c3ccccc23)n(-c2ccc(S(C)(=O)=O)cc2)n1` [Example 31, 1-(3-(tert-butyl)-1-(4-(methylsulfonyl)phenyl)-1H-pyrazol-5-yl)-3-(4-((3-oxo-3,4-dihydropyrido[2,3-b]pyrazin-8-yl)oxy)naphthalen-1-yl)urea], the IC50 was 5 nM at p38 MAPK alpha (MAPK14); 47 nM on p38 MAPK γ (MAPK12); 3 nM on HCK enzyme; 6 nM at cSrc enzyme; 62 nM in data set [1]; 68 nM in data set [3]. The IC50 in data set [4] was 178 nM. Moreover, the EC50 in data set [2] was found to be 60 nM. Also, in the data set on HRV16, the inhibition at 0.04 µg/mL came to 8%. Moreover, in data set [5], the “d-U937 MTT Assay 4 h” value was “− (− and + indicate the result is below and above the no significant effect threshold, respectively (<30% inhibition at a concentration of 1 μg/ml))”. For the same compound, in [5], the “d-U937 MTT Assay 24 h” value is “− (− and + indicate the result is below and above the no significant effect threshold, respectively (<30% inhibition at a concentration of 1 μg/ml))”.
Consider `CSc1ccc(-n2nc(C(C)(C)C)cc2NC(=O)Nc2ccc(Oc3ccnc4[nH]c(=O)cnc34)c3ccccc23)cc1` [Example 33, 1-(3-(tert-butyl)-1-(4-(methylthio)phenyl)-1H-pyrazol-5-yl)-3-(4-((3-oxo-3,4-dihydropyrido[2,3-b]pyrazin-8-yl)oxy)naphthalen-1-yl)urea], for which the half-maximal inhibitory concentration (IC50) was 5 nM on p38 MAPK alpha (MAPK14); 74 nM on p38 MAPK γ (MAPK12); 4 nM on HCK enzyme; 7 nM at cSrc enzyme; 13 nM in data set [1]; 9.4 nM in data set [3]. Besides, in data set [4], the IC50 stood at 3.2 nM. Further, the EC50 in data set [2] was 8.2 nM. For the same compound, the inhibition at 0.04 µg/mL in the data set with HRV16 was 80%. The “d-U937 MTT Assay 4 h” value in [5] was “− (− and + indicate the result is below and above the no significant effect threshold, respectively (<30% inhibition at a concentration of 1 μg/ml))”. Moreover, the “d-U937 MTT Assay 24 h” value in [5] was “− (− and + indicate the result is below and above the no significant effect threshold, respectively (<30% inhibition at a concentration of 1 μg/ml))”.
